US20100168097A1, “Non-Nucleoside Reverse Transcriptase Inhibitors” (priority 2005, published 2010)
Like-named read-outs stand apart in the source and are kept apart here.

Tests used:
HIV-1 RT enzyme = HIV-1 RT enzyme (Human immunodeficiency virus type 1 group M subtype B, UniProt P04585); experiment: Assay for inhibition of HIV reverse transcriptase (RNA-dependent DNA polymerase, SPA); type: biochemical; details: HIV-1 RT enzyme 1 nM, 1 hour at 37° C.
Procedure: (§1) 100 μL reaction mixtures were initiated with a combination of primer-template substrate (10 nM final concentration) and dNTPs (0.6 μM dNTPs, 0.75 μM [^3H]-dGTP). The heterodimeric nucleic acid substrate was generated by annealing the DNA primer pD500 (described in Shaw-Reid et al., J. Biol. Chem., 278: 2777-2780; obtained from Integrated DNA Technologies) to t500, a 500 nucleotide RNA template created by in vitro transcription (see Shaw-Reid et al., J. Biol. Chem., 278: 2777-2780). After 1 hour incubation at 37° C., reactions were quenched by 10 μL streptavidin scintillation proximity assay beads (10 mg/mL, from Amersham Biosciences) in 0.5 M EDTA, pH 8. Microtiter plates were incubated an additional 10 minutes at 37° C. prior to quantification via Topcount (Packard).

[1] = target: T1, mutant HIV reverse transcriptase, K103N mutation (Human immunodeficiency virus type 1 group M subtype B, UniProt P04585, K690N); experiment: Analogous RT inhibition assay, K103N mutant; type: biochemical
T1 construct: made in house
Procedure: as §1
(§2) Analogous assays were conducted substituting mutant HIV strains to determine the […] inhibition of compounds of the present invention against mutant HIV reverse transcriptase. In one strain the reverse transcriptase has the Y181C mutation and in the other strain the reverse transcriptase has the K103N mutation. The mutations were generated with the […] site-directed mutagenesis kit (Stratagene).

[2] = target: T2, mutant HIV reverse transcriptase, Y181C mutation (Human immunodeficiency virus type 1 group M subtype B, UniProt P04585, Y768C); experiment: Analogous RT inhibition assay, Y181C mutant; type: biochemical
T2 construct: made in house
Procedure: as §1, §2

[3] = tested on: acute HIV infection of T-lymphoid cells; experiment: Assay for inhibition of HIV replication (spread assay); type: cell-based; details: Human immunodeficiency virus 1; inhibition of HIV replication in T-lymphoid cells
Procedure: An assay for the inhibition of acute HIV infection of T-lymphoid cells (alternatively referred to herein as the “spread assay”) was conducted in accordance with Vacca, J. P. et al., Proc. Natl. Acad. Sci. USA 1994, 91: 4096. […] The compounds of Examples 2-4 and 22 were not tested.

[4] = K103N mutant RT, tested up to 20 micromolar, read-out: IC50, K103N mutant assay

Row | Compound | IC50 (HIV-1 RT enzyme) [nM] | IC50 [1, 4] [nM] | IC50 [2] [nM] | IC95 [3] [nM] | IC50 [1] [nM] | IC50 ([2]; Y181C mutant RT, tested up to 20 micromolar, read-out: IC50, Y181C mutant assay) [nM]
1 | O=S(=O)(c1ccccc1)c1c(-c2ncc(-c3ccncc3)s2)[nH]c2ccc(Cl)cc12 [Example 2, 5-chloro-3-(phenylsulfonyl)-2-(5-pyridin-4-yl-1,3-thiazol-2-yl)-1H-indole] | 4000 | – | – | – | – | –
2 | COC(=O)c1cc(-c2c[nH]c(-c3[nH]c4ccc(Br)cc4c3S(=O)(=O)N3CCCC3)n2)ccc1O [Example 31, methyl 5-{2-[5-bromo-3-(pyrrolidin-1-ylsulfonyl)-1H-indol-2-yl]-1H-imidazol-4-yl}-2-hydroxybenzoate] | – | < 1000 | > 20000 | < 1000 | – | –
3 | O=S(=O)(c1ccccc1)c1c(-c2noc(-c3ccncc3)n2)[nH]c2ccc(Cl)cc12 [Example 10, 5-chloro-3-(phenylsulfonyl)-2-(5-pyridin-4-yl-1,2,4-oxadiazol-3-yl)-1H-indole] | – | > 20000 | 1000 to 20000 | < 1000 | – | –
4 | Cc1cnc(-c2[nH]c3ccc(Cl)cc3c2S(=O)(=O)CC2CCC2)[nH]1 [Example 34, 5-Chloro-3-[(cyclobutylmethyl)sulfonyl]-2-(5-methyl-1H-imidazol-2-yl)-1H-indole] | – | – | – | < 1000 | > 3000 | < 1000
